# What was measured:
# [1] = test system: Escherichia coli EC-1: VOGEL, mouse virulent; assay: MIC determination (CLSI), strain EC-1; format: cell-based; details: strain EC-1, unit assumed
# Outline: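 The mouse-virulent VOGEL isolate of E. coli, EC-1, served as test organism. Minimum inhibitory concentration was measured by CLSI dilution methodology (M7-A7; M100-S18 standards).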
# [2] = test system: Pseudomonas aeruginosa UI-18: Wild-type (PA-7); assay: MIC determination (CLSI), strain PA-7; format: cell-based; details: strain PA-7, unit assumed
# Outline: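 MIC determined by broth dilution per CLSI M7-A7 guidelines with M100-S18 interpretive standards. Test organism: wild-type Pseudomonas aeruginosa UI-18, designated PA-7.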
# [3] = generated in the same manner as in Table 4
SMILES,EC-1 (MIC) [1] [µg/mL],PA-7 (MIC) [2] [µg/mL],"EC-1 (MIC) [1, 3] [µg/mL]","PA-7 (MIC) [2, 3] [µg/mL]"
"C[C@@](CCn1ccc(-c2cc(F)cc(F)c2)cc1=O)(C(=O)NO)S(C)(=O)=O [Example 335, (2R)-4-[4-(3,5-difluorophenyl)-2-oxopyridin-1(2H)-yl]-N-hydroxy-2-methyl-2-(methylsulfonyl)butanamide]",1,2,–,–
"Cc1cnc2cc(-c3ccn(CCC(C)(C(=O)NO)S(C)(=O)=O)c(=O)c3)ccc2c1 (stereo not shown) [Example 308, N-hydroxy-2-methyl-4-[4-(3-methylquinolin-7-yl)-2-oxopyridin-1(2H)-yl]-2-(methylsulfonyl)butanamide]",2,4,–,–
"CCCn1cc(-c2ccn(CCC(C)(C(=O)NO)S(C)(=O)=O)c(=O)c2)cn1 (stereo not shown) [Example 152, N-hydroxy-2-methyl-2-(methylsulfonyl)-4-[2-oxo-4-(1-propyl-1H-pyrazol-4-yl)pyridin-1(2H)-yl]butanamide]",–,–,> 64,> 64
"COc1cc(F)ccc1-c1ccn(CCC(C)(C(=O)NO)S(C)(=O)=O)c(=O)c1 (stereo not shown) [Example 166, 4-[4-(4-fluoro-2-methoxyphenyl)-2-oxopyridin-1(2H)-yl]-N-hydroxy-2-methyl-2-(methylsulfonyl)butanamide]",–,–,16,8
"C[C@@](CCn1ccc(-c2ccc(OCCC3CCN(C(=O)CO)CC3)cc2)cc1=O)(C(=O)NO)S(C)(=O)=O [Example 312, (2R)-4-[4-{4-[2-(1-glycoloylpiperidin-4-yl)ethoxy]phenyl}-2-oxopyridin-1(2H)-yl]-N-hydroxy-2-methyl-2-(methylsulfonyl)butanamide]",0.5,4,–,–
"Cc1cc(C(N)=O)ccc1-c1ccn(CCC(C)(C(=O)NO)S(C)(=O)=O)c(=O)c1 (stereo not shown) [Example 113, 4-{1-[4-(hydroxyamino)-3-methyl-3-(methylsulfonyl)-4-oxobutyl]-2-oxo-1,2-dihydropyridin-4-yl}-3-methylbenzamide]",–,–,> 64,> 64
"COc1ccc(-c2ccc(-c3ccn(CC[C@](C)(C(=O)NO)S(C)(=O)=O)c(=O)c3)cc2)cn1 [Example 310, (2R)-N-hydroxy-4-{4-[4-(6-methoxypyridin-3-yl)phenyl]-2-oxopyridin-1(2H)-yl}-2-methyl-2-(methylsulfonyl)butanamide]",0.125,0.5,–,–
"CC(CCn1ccc(-c2ccc(OC(F)(F)F)cc2)cc1=O)(C(=O)NO)S(C)(=O)=O (stereo not shown) [Example 145, N-hydroxy-2-methyl-2-(methylsulfonyl)-4-{2-oxo-4-[4-(trifluoromethoxy)phenyl]pyridin-1(2H)-yl}butanamide]",–,–,1,2
"CCNC(=O)c1ccc(-c2ccn(CCC(C)(C(=O)NO)S(C)(=O)=O)c(=O)c2)cc1F (stereo not shown) [Example 177, N-ethyl-2-fluoro-4-{1-[4-(hydroxyamino)-3-methyl-3-(methylsulfonyl)-4-oxobutyl]-2-oxo-1,2-dihydropyridin-4-yl}benzamide]",–,–,> 64,64
CC(CCn1ccc(-c2ccc(OCCCc3ccncc3)cc2)cc1=O)(C(=O)NO)S(C)(=O)=O (stereo not shown) [Example 89],–,–,0.25,2
"COc1cc(-c2ccn(CCC(C)(C(=O)NO)S(C)(=O)=O)c(=O)c2)ccc1F (stereo not shown) [Example 208, 4-[4-(4-fluoro-3-methoxyphenyl)-2-oxopyridin-1(2H)-yl]-N-hydroxy-2-methyl-2-(methylsulfonyl)butanamide]",32,16,–,–
"CC(CCn1ccc(-c2ccc(OCCCN3CC(O)C3)cc2)cc1=O)(C(=O)NO)S(C)(=O)=O (stereo not shown) [Example 84, N-hydroxy-4-[4-{4-[3-(3-hydroxyazetidin-1-yl)propoxy]phenyl}-2-oxopyridin-1(2H)-yl]-2-methyl-2-(methylsulfonyl)butanamide]",–,–,> 64,32
"C[C@@](CCn1ccc(-c2ccc(OCC#N)cc2)cc1=O)(C(=O)NO)S(C)(=O)=O [Example 333, (2R)-4-{4-[4-(cyanomethoxy)phenyl]-2-oxopyridin-1(2H)-yl}-N-hydroxy-2-methyl-2-(methylsulfonyl)butanamide]",16,8,–,–
"CCCCc1ccc(-c2ccn(CCC(C)(C(=O)NO)S(C)(=O)=O)c(=O)c2)cc1 (stereo not shown) [Example 199, 4-[4-(4-butylphenyl)-2-oxopyridin-1(2H)-yl]-N-hydroxy-2-methyl-2-(methylsulfonyl)butanamide]",0.125,2,–,–
"Cc1cn(-c2ccc(-c3ccn(CC[C@](C)(C(=O)NO)S(C)(=O)=O)c(=O)c3)cc2)nn1 [Example 377, (2R)-N-hydroxy-2-methyl-2-(methylsulfonyl)-4-{4-[4-(4-methyl-1H-1,2,3-triazol-1-yl)phenyl]-2-oxopyridin-1(2H)-yl}butanamide]",8,8,–,–
"CC(CCn1ccc(-c2cc(F)ccc2OC(F)(F)F)cc1=O)(C(=O)NO)S(C)(=O)=O (stereo not shown) [Example 137, 4-{4-[5-fluoro-2-(trifluoromethoxy)phenyl]-2-oxopyridin-1(2H)-yl}-N-hydroxy-2-methyl-2-(methylsulfonyl)butanamide]",–,–,> 64,> 64

SMILES,EC-1 (MIC) [1] [µg/mL],PA-7 (MIC) [2] [µg/mL],"EC-1 (MIC) [1, 3] [µg/mL]","PA-7 (MIC) [2, 3] [µg/mL]"
"CC(CCn1ccc(-c2cccc(C(F)(F)F)c2)cc1=O)(C(=O)NO)S(C)(=O)=O (stereo not shown) [Example 143, N-hydroxy-2-methyl-2-(methylsulfonyl)-4-{2-oxo-4-[3-(trifluoromethyl)phenyl]pyridin-1(2H)-yl}butanamide]",–,–,4,8
"Cc1ccnc2ccc(-c3ccn(CCC(C)(C(=O)NO)S(C)(=O)=O)c(=O)c3)cc12 (stereo not shown) [Example 302, N-hydroxy-2-methyl-4-[4-(4-methylquinolin-6-yl)-2-oxopyridin-1(2H)-yl]-2-(methylsulfonyl)butanamide]",64,16,–,–
C[C@@](CCn1ccc(-c2ccc(Oc3nc4ccccc4s3)cc2)cc1=O)(C(=O)NO)S(C)(=O)=O [Example 445],0.25,4,–,–
C[C@@](CCn1ccc(-c2ccc3c(c2)C(=O)OCC3)cc1=O)(C(=O)NO)S(C)(=O)=O [Example 481],> 64,64,–,–
"CN1Cc2cc(-c3ccn(CCC(C)(C(=O)NO)S(C)(=O)=O)c(=O)c3)ccc2C1=O (stereo not shown) [Example 179, N-hydroxy-2-methyl-4-[4-(2-methyl-1-oxo-2,3-dihydro-1H-isoindol-5-yl)-2-oxopyridin-1(2H)-yl]-2-(methylsulfonyl)butanamide]",–,–,> 64,> 64
"CC(CCn1ccc(-c2ccc(OCCCN3CCOCC3)c(Cl)c2)cc1=O)(C(=O)NO)S(C)(=O)=O (stereo not shown) [Example 221, 4-{4-[3-chloro-4-(3-morpholin-4-ylpropoxy)phenyl]-2-oxopyridin-1(2H)-yl}-N-hydroxy-2-methyl-2-(methylsulfonyl)butanamide]",2,8,–,–
"CC(CCn1ccc(-c2ccc(OCc3ccccn3)cc2)cc1=O)(C(=O)NO)S(C)(=O)=O (stereo not shown) [Example 270, N-hydroxy-2-methyl-2-(methylsulfonyl)-4-{2-oxo-4-[4-(pyridin-2-ylmethoxy)phenyl]pyridin-1(2H)-yl}butanamide]",1,2,–,–
CC(CCn1ccc(-c2ccc(OCCCCO)cc2F)cc1=O)(C(=O)NO)S(C)(=O)=O (stereo not shown) [Example 241],2,2,–,–
"CC(CCn1ccc(-c2ccc3cnccc3c2)cc1=O)(C(=O)NO)S(C)(=O)=O (stereo not shown) [Example 260, N-hydroxy-4-(4-isoquinolin-6-yl-2-oxopyridin-1(2H)-yl)-2-methyl-2-(methylsulfonyl)butanamide]",4,4,–,–
"C[C@@](CCn1ccc(-c2ccccc2Cl)cc1=O)(C(=O)NO)S(C)(=O)=O [Example 341, (2R)-4-[4-(2-chlorophenyl)-2-oxopyridin-1(2H)-yl]-N-hydroxy-2-methyl-2-(methylsulfonyl)butanamide]",4,2,–,–
"CC(CCn1ccc(-c2ccccc2OCC(F)(F)F)cc1=O)(C(=O)NO)S(C)(=O)=O (stereo not shown) [Example 131, N-hydroxy-2-methyl-2-(methylsulfonyl)-4-{2-oxo-4-[2-(2,2,2-trifluoroethoxy)phenyl]pyridin-1(2H)-yl}butanamide]",–,–,> 64,> 64
COc1cc(OCCCCO)ccc1-c1ccn(CCC(C)(C(=O)NO)S(C)(=O)=O)c(=O)c1 (stereo not shown) [Example 245],64,64,–,–
"Cc1nncn1-c1ccc(-c2ccn(CC[C@](C)(C(=O)NO)S(C)(=O)=O)c(=O)c2)cc1 [Example 383, (2R)-N-hydroxy-2-methyl-2-(methylsulfonyl)-4-{4-[4-(3-methyl-4H-1,2,4-triazol-4-yl)phenyl]-2-oxopyridin-1(2H)-yl}butanamide]",> 64,> 64,–,–
"CC(CCn1ccc(-c2ccc(F)cc2)cc1=O)(C(=O)NO)S(C)(=O)=O (stereo not shown) [Example 192, 4-[4-(4-fluorophenyl)-2-oxopyridin-1(2H)-yl]-N-hydroxy-2-methyl-2-(methylsulfonyl)butanamide]",8,2,–,–
"CC(CCn1ccc(-c2ccc(OCCCO)cc2Cl)cc1=O)(C(=O)NO)S(C)(=O)=O (stereo not shown) [Example 251, 4-{4-[2-chloro-4-(3-hydroxypropoxy)phenyl]-2-oxopyridin-1(2H)-yl}-N-hydroxy-2-methyl-2-(methylsulfonyl)butanamide]",2,4,–,–
"C[C@@](CCn1ccc(-c2ccc3cc(OCCO)ccc3c2)cc1=O)(C(=O)NO)S(C)(=O)=O [Example 314, (2R)-N-hydroxy-4-{4-[6-(2-hydroxyethoxy)-2-naphthyl]-2-oxopyridin-1(2H)-yl}-2-methyl-2-(methylsulfonyl)butanamide]",0.5,1,–,–
